{"source": "ChEMBL document CHEMBL1201862", "about": "“PubChem BioAssay data set” (2004)", "key": {"[1]": {"target": "Protein Wnt-3a (Mus musculus, UniProt P27467)", "test": "SAR analysis of small molecule antagonists of Gli-SUFU in a Wnt3a luminescent reporter assay.", "type": "functional"}, "[2]": {"test": "general cell-killing toxicity readout – plate reader, dry powder samples, cytotoxicity control for PAX8 inhibitor project, dose response (AID 743021)", "type": "functional, cell-based"}, "[3]": {"tested_on": "HeLa", "test": "viability loss in HeLa cells – cell-based, ATP luminescence, cherry-pick samples, cytotoxicity control, dose response (AID 687004)", "type": "functional", "details": "Homo sapiens"}, "[4]": {"test": "T. cruzi growth inhibition in host cells, dose response, cell-based, plate reader, dry powder, set 2 (AID 652275)", "type": "functional"}, "[5]": {"target": "Albumin (Bos taurus, UniProt P02769)", "test": "Counterscreen for inhibitors of T-cell receptor (TCR)-CD3 interaction: Fluorescence-based biochemical high throughput dose response assay to identify inhibitors of T-cell receptor (TCR)-CD3 interaction using a TAMRA-labeled BSA probe.", "type": "functional"}, "[6]": {"target": "Caspase-6 (Homo sapiens, UniProt P55212)", "test": "inhibition of CASP6 peptide cleavage – biochemical, VEID-R110 fluorescence, cherry-pick, dose response (AID 720632)"}, "[7]": {"test": "cells"}, "[8]": {"target": "Major prion protein (Homo sapiens, UniProt P04156)", "type": "functional, cell-based"}, "[9]": {"target": "1-phosphatidylinositol 4,5-bisphosphate phosphodiesterase gamma-1 (Homo sapiens, UniProt P19174)", "test": "Counterscreen for inhibitors of phospholipase C isozymes (PLC-B3): Fluorescence-based biochemical high throughput dose response assay to identify inhibitors of phospholipase C isozymes (PLC-gamma1)."}, "[10]": {"target": "1-phosphatidylinositol 4,5-bisphosphate phosphodiesterase beta-3 (Homo sapiens, UniProt Q01970)", "test": "Fluorescence-based biochemical high throughput dose response assay to identify inhibitors of phospholipase C isozymes (PLC-B3)."}, "[11]": {"target": "T1, Sentrin-specific protease 8 (Homo sapiens, UniProt Q96LD8)", "T1 sequence (Q96LD8 whole entry)": "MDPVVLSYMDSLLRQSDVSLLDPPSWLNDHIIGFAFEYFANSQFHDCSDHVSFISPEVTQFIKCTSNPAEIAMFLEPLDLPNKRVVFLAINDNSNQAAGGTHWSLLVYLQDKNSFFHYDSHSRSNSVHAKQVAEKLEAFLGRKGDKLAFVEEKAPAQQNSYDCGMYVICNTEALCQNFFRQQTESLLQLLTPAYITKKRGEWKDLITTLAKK", "type": "functional"}, "[12]": {"target": "T2, COUP transcription factor 2 (Homo sapiens, UniProt P24468)", "T2 sequence (P24468 whole entry)": "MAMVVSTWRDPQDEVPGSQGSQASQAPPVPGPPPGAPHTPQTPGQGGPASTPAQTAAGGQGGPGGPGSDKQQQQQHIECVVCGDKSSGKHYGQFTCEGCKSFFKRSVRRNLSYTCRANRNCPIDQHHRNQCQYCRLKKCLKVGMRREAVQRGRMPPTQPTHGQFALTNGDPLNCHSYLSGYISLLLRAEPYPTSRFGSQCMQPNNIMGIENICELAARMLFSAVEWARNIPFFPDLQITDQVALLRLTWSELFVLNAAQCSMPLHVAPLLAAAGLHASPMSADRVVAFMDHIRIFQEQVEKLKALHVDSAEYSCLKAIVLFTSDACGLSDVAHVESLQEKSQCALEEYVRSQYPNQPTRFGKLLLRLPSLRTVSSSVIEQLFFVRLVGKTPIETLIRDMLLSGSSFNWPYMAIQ", "test": "Luminescence-based cell-based high throughput dose response assay to identify inhibitors of COUP-TFII (NR2F2).", "type": "functional"}, "[13]": {"target": "Galanin receptor type 3 (Homo sapiens, UniProt O60755)", "test": "Fluorescence-based cell-based primary high throughput dose response assay to identify antagonists of the Galanin Receptor 3 (GalR3).", "type": "functional"}, "[14]": {"target": "Cytochrome P450 2C9 (Homo sapiens, UniProt P11712)"}, "[15]": {"test": "cells", "type": "functional, cell-based", "details": "HEK-CNG"}}, "note": "Activity calls are given as the source filed them.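 Throughout, for EC50: target is galanin receptor GalR3 read with a cAMP biosensor in HEK293 cells.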", "data": [{"compound": "O=C(Nc1cc(N2CCCCC2)ncn1)c1cccs1", "values": [{"measurement": "IC50", "setting": "[1]", "value": "> 21.8 µM (inactive)"}]}, {"compound": "Cc1ccc(NC(=S)N(CCCN2CCOCC2)Cc2ccccn2)cc1", "values": [{"measurement": "AC50", "setting": "[2]", "value": "50.9 µM (active)"}]}, {"compound": "C[C@@H]1CCCCO[C@H](CN(C)Cc2ccc3c(c2)OCO3)[C@H](C)CN([C@H](C)CO)C(=O)c2cc(NC(=O)Nc3cccc4ccccc34)ccc2O1", "values": [{"measurement": "AC50", "setting": "[3]", "value": "20.1 µM (active)"}]}, {"compound": "CC(C)N1CC2(CN(CCc3ccccc3)C2)Oc2c(NC(=O)c3ccncc3)cccc2C1=O", "values": [{"measurement": "AC50", "setting": "[4]", "value": "0.252 µM (active)"}]}, {"compound": "C=CCn1c(O)c(N=NC(=O)CNC(=O)/C=C/c2ccco2)c2ccccc21", "values": [{"measurement": "IC50", "setting": "[5]", "value": "> 94.1 µM (inactive)"}]}, {"compound": "CC(C)(C)Nc1cc(NC(=O)c2ccccc2)ncn1", "values": [{"measurement": "IC50", "setting": "[1]", "value": "> 21.8 µM (inactive)"}]}, {"compound": "O=C(Nc1cccc(C(F)(F)F)c1)c1cccc(NS(=O)(=O)c2ccc(O)c(C(=O)O)c2)c1", "values": [{"measurement": "AC50", "setting": "[6]", "value": "40.3 µM (active)"}]}, {"compound": "CCOc1cc(C2Nc3ccccc3C(=O)N2c2ccccc2)c(Br)cc1OCC(=O)O", "note": "(centres undefined)", "values": [{"measurement": "IC50", "setting": "[7]", "value": "> 138 µM (inactive)"}, {"measurement": "IC50", "setting": "[8]", "value": "10.1 µM (inactive)"}]}, {"compound": "CNC(=S)NNC(=O)c1cccn(Cc2ccccc2)c1=O", "values": [{"measurement": "IC50", "setting": "[5]", "value": "> 94.2 µM (inactive)"}]}, {"compound": "Cc1c(/N=C(\\S)N/N=C/C=C/c2ccc([N+](=O)[O-])cc2)c(=O)n(-c2ccccc2)n1C", "values": [{"measurement": "IC50", "setting": "[9]", "value": "> 123 µM (inactive)"}, {"measurement": "IC50", "setting": "[10]", "value": "> 123 µM (inactive)"}]}, {"compound": "O=[N+]([O-])c1cc(F)c2cccnc2c1O", "values": [{"measurement": "AC50", "setting": "[6]", "value": "14.3 µM (active)"}, {"measurement": "IC50", "setting": "[11]", "value": "12 µM (active)"}]}, {"compound": "CC(C)N1C[C@H](CN(C)Cc2ccc(Cl)cc2)Oc2c(NC(=O)c3ccncc3)cccc2C1=O", "values": [{"measurement": "AC50", "setting": "[4]", "value": "0.00393 µM (active)"}]}, {"compound": "NC(=O)c1nnn(Cc2cc(Cl)c(C(=O)c3ccc(Cl)cc3)c(Cl)c2)c1N", "note": "[CARBOXYAMIDOTRIAZOLE]", "values": [{"measurement": "IC50", "setting": "[12]", "value": "9.21 µM (active)"}, {"measurement": "IC50", "setting": "[13]", "value": "0.303 µM (active)"}, {"measurement": "AC50", "setting": "[14]", "value": "inconclusive"}, {"measurement": "EC50", "setting": "[15]", "value": "> 29.9 µM (inactive)"}]}]}
